Reference: US11964973B2 (priority 2019, dated 2024)

These compounds were tested on Human venous whole blood (IFN-γ) (assay: Human whole blood IFN-γ assay). Settings: Homo sapiens, 24 h, human whole blood, anti-CD3 plus anti-CD28, 24 hours; read-out: INFg Whole Blood Normalized Agonist EC50.
Assay type: cell-based
Method: Assay 10: Human Whole Blood IFN-γ Assay
Human venous whole blood (22.5 μL per well), obtained from healthy donors, was pre-treated with compounds for one hour at 37° C. in a humidified 95% air/5% CO2 incubator. The blood was stimulated with 2.5 μL anti-human CD3 and anti-CD28 mAb at a final concentration of 1 μg/mL each for 24 hours at 37° C. IFN-γ in the supernatants was measured using AlphLISA kit (Cat #AL217).

Question: Which EC50 does the source give for `Cn1c(=O)cc(N2CCC(Oc3ccc(C(C)(C)C)cc3)CC2)c2cc(C#N)ccc21` [Example 53, 4-(4-(4-(tert-butyl)phenoxy)piperidin-1-yl)-1-methyl-2-oxo-1,2-dihydroquinoline-6-carbonitrile] here?
Answer: 1.8 µM

Question: With `C[C@@H]1CN(c2cc(=O)n(C)c3ccc(C#N)nc23)CC[C@@H]1Oc1ccc(C(C)(C)C)cc1` (racemic) [Example 175, 8-((3R,4S)-4-(4-(tert-butyl)phenoxy)-3-methylpiperidin-1-yl)-5-methyl-6-oxo-5,6-dihydro-1,5-naphthyridine-2-carbonitrile] as the compound, how does the EC50 read?
Answer: 1.4 µM

Same assay, conditions: human whole blood IFN-γ; read-out: INFg Whole Blood

Question: With `C[C@@H]1CN(c2cc(=O)n(C)c3ccc(C#N)nc23)CC[C@@H]1Oc1ccc(C(F)(F)F)cc1` (single isomer, unassigned) [Example 187, 5-methyl-8-(cis-3-methyl-4-(4-(trifluoromethyl)phenoxy)piperidin-1-yl)-6-oxo-5,6-dihydro-1,5-naphthyridine-2-carbonitrile (rel)] as the compound, how does the EC50 read?
Answer: 1.7 µM

Question: For `CC(C)Oc1ccc(O[C@@H]2CCN(c3cc(=O)n(C)c4ccc(C#N)nc34)C[C@H]2C)nc1` (single isomer, unassigned) [Example 201], which EC50 is on record?
Answer: 0.92 µM

Question: `C[C@@H]1CN(c2cc(=O)n(C)c3ccc(C#N)nc23)CC[C@@H]1Oc1ccc(C(F)F)cn1` (single isomer, unassigned) [Example 210] was tested. Which EC50 did it give?
Answer: 1.2 µM

What follows are compounds tested on human venous whole blood, CD8 positive population (pERK) (assay: DGK human whole blood pERK assay). Settings: Homo sapiens, CD8 positive, human whole blood pERK; read-out: DGK HWB.
Assay type: cell-based
Method: Assay 11: DGK Human Whole Blood pERK Assay
Human whole blood ERK phosphorylation assay was performed with human venous whole blood obtained from healthy donors (drawn with Heparin as anti-coagulant). […] Heparinized human whole blood was added to the compound plate at 9 μL per well and incubated for one hour at 37° C. in a humidified 95%, air/5% CO2 incubator. After one hour of compound incubation, 1 μL of human anti-CD3 antibody (in-house) in the presence of cross-linking antibody goat anti-mouse IgG (4 μg/mL) was added to the well at 1 μg/mL final concentration for stimulation of pathway and additionally incubated for 15 minutes at 37° C. […] Samples analyzed using the Intellicyt® iQue Screener PLUS. The pERK activation was quantitated by the percentage of pERK positive population within CD8 positive population.

Question: `C[C@@H]1CN(c2cc(=O)n(C)c3ccc(C#N)nc23)CC[C@@H]1Oc1ccc(C(F)(F)F)cc1` (single isomer, unassigned) [Example 187, 5-methyl-8-(cis-3-methyl-4-(4-(trifluoromethyl)phenoxy)piperidin-1-yl)-6-oxo-5,6-dihydro-1,5-naphthyridine-2-carbonitrile (rel)] was tested. Which EC50 did it give?
Answer: 1.8 µM

Question: For `CC1CN(c2cc(=O)n(C)c3ccc(C#N)nc23)CCC1N(C)Cc1ccc(F)cc1` (single isomer, unassigned) [Example 327, -(4-((4-fluorobenzyl)(methyl)amino)-3-methylpiperidin-1-yl)-5-methyl-6-oxo-5,6-dihydro-1,5-naphthyridine-2-carbonitrile], which EC50 is on record?
Answer: 1.9 µM

Question: `Cc1ccc(O[C@@H]2C[C@H](C)N(c3cc(=O)n(C)c4ccc(C#N)nc34)C[C@@H]2C)cc1` [Example 312, 8-((2S,4R,5S)-2,5-dimethyl-4-(p-tolyloxy)piperidin-1-yl)-5-methyl-6-oxo-5,6-dihydro-1,5-naphthyridine-2-carbonitrile] was tested. Which EC50 did it give?
Answer: 6 µM

Question: Which EC50 does the source give for `CCO[C@H]1CN(c2cc(=O)n(C)c3ccc(C#N)nc23)CC[C@@H]1Oc1ccc(S(C)(=O)=O)cc1` [Example 354, 8-((3S,4S)-3-ethoxy-4-(4-(methylsulfonyl)phenoxy)piperidin-1-yl)-5-methyl-6-oxo-5,6-dihydro-1,5-naphthyridine-2-carbonitrile] here?
Answer: 20 µM

Same assay, conditions: Homo sapiens, CD8 positive, read-out: DGK HWB, human whole blood pERK

Question: Which EC50 does the source give for `C[C@@H]1CN(c2nc(=O)n(C)c3ccc(C#N)nc23)[C@@H](C)CC1Oc1cccc(C(F)(F)F)c1` (stereo in doubt) [Example 252, 4-((2S,5R)-2,5-dimethyl-4-(3-(trifluoromethyl)phenoxy)piperidin-1-yl)-1-methyl-2-oxo-1,2-dihydropyrido[3,2-d]pyrimidine-6-carbonitrile] here?
Answer: 3.5 µM

Question: With `CC[C@@H]1CN(c2nc(=O)n(C)c3ccc(Cl)nc23)[C@@H](C)C[C@H]1Oc1ccc(OC(C)C)cn1` [Example 300, 6-chloro-4-((2S,4R,5R)-5-ethyl-4-((5-isopropoxypyridin-2-yl)oxy)-2-methylpiperidin-1-yl)-1-methylpyrido[3,2-d]pyrimidin-2(1H)-one] as the compound, how does the EC50 read?
Answer: 8.3 µM

Question: Which EC50 does the source give for `C[C@@H]1CN(c2cc(=O)n(C)c3ccc(C#N)nc23)[C@@H](C)CC1N(C)Cc1ccc(F)cc1` (single isomer, unassigned) [Example 331] here?
Answer: 11 µM

Question: How did the EC50 turn out when `CC[C@@H]1CN(c2cc(=O)n(C)c3ccc(C#N)nc23)[C@@H](C)C[C@H]1Oc1ccc(OC(C)C)cn1` [Example 296, 8-((2S,4R,5R)-5-ethyl-4-((5-isopropoxypyridin-2-yl)oxy)-2-methylpiperidin-1-yl)-5-methyl-6-oxo-5,6-dihydro-1,5-naphthyridine-2-carbonitrile] was run?
Answer: 13 µM

Question: With `CC[C@@H]1CN(c2cc(=O)n(C)c3ccc(C#N)nc23)[C@H](C)C[C@H]1Oc1ccc(OC(C)C)cn1` [Example 297, 8-((2R,4R,5R)-5-ethyl-4-((5-isopropoxypyridin-2-yl)oxy)-2-methylpiperidin-1-yl)-5-methyl-6-oxo-5,6-dihydro-1,5-naphthyridine-2-carbonitrile] as the compound, how does the EC50 read?
Answer: 0.68 µM

Same assay, conditions: human whole blood pERK; read-out: DGK HWB

Question: `CC(C)Oc1ccc(O[C@@H]2CCN(c3cc(=O)n(C)c4ccc(C#N)nc34)C[C@H]2C)nc1` (single isomer, unassigned) [Example 201] was tested. Which EC50 did it give?
Answer: 3.9 µM

Question: With `C[C@@H]1CN(c2cc(=O)n(C)c3ccc(C#N)nc23)CC[C@@H]1Oc1ccc(C(F)F)cn1` (single isomer, unassigned) [Example 210] as the compound, how does the EC50 read?
Answer: 13 µM

Question: With `CCO[C@H]1CN(c2cc(=O)n(C)c3ccc(C#N)nc23)CC[C@@H]1Oc1nc2ccccc2s1` [Example 374] as the compound, how does the EC50 read?
Answer: 20 µM

Question: With `CCO[C@H]1CN(c2cc(=O)n(C)c3ccc(C#N)nc23)CC[C@H]1Oc1ccc(OC(C)C)cn1` (relative stereo) [Example 372, cis-8-(3-Ethoxy-4-((5-isopropoxypyridin-2-yl)oxy)piperidin-1-yl)-5-methyl-6-oxo-5,6-dihydro-1,5-naphthyridine-2-carbonitrile] as the compound, how does the EC50 read?
Answer: 18 µM

Question: For `CCO[C@H]1CN(c2cc(=O)n(C)c3ccc(C#N)nc23)CC[C@@H]1Oc1cc(C(F)(F)F)ccn1` [Example 366, 8-((3S,4S)-3-ethoxy-4-((4-(trifluoromethyl)pyridin-2-yl)oxy)piperidin-1-yl)-5-methyl-6-oxo-5,6-dihydro-1,5-naphthyridine-2-carbonitrile], which EC50 is on record?
Answer: 20 µM

Question: With `CCO[C@H]1CN(c2cc(=O)n(C)c3ccc(C#N)nc23)CC[C@@H]1Oc1cccc(OC(F)(F)F)c1` [Example 352, 8-((3S,4S)-3-ethoxy-4-(3-(trifluoromethoxy)phenoxy)piperidin-1-yl)-5-methyl-6-oxo-5,6-dihydro-1,5-naphthyridine-2-carbonitrile] as the compound, how does the EC50 read?
Answer: 12 µM

Question: `CCO[C@H]1CN(c2cc(=O)n(C)c3ccc(C#N)nc23)CC[C@@H]1Oc1ccc(C(F)(F)F)cc1` [Example 343, 8-((3S,4S)-3-ethoxy-4-(4-(trifluoromethyl)phenoxy)piperidin-1-yl)-5-methyl-6-oxo-5,6-dihydro-1,5-naphthyridine-2-carbonitrile] was tested. Which EC50 did it give?
Answer: 0.32 µM

Question: For `CCO[C@H]1CN(c2cc(=O)n(C)c3ccc(C#N)nc23)CC[C@@H]1Oc1ccc2oc(C)nc2c1` [Example 355, 8-((3S,4S)-3-ethoxy-4-((2-methylbenzo[d]oxazol-5-yl)oxy)piperidin-1-yl)-5-methyl-6-oxo-5,6-dihydro-1,5-naphthyridine-2-carbonitrile], which EC50 is on record?
Answer: 20 µM

Question: With `CCO[C@H]1CN(c2cc(=O)n(C)c3ccc(C#N)nc23)CC[C@@H]1Oc1cccc(OC(F)(F)F)c1` [Example 351, 8-((3S,4S)-3-ethoxy-4-(3-(trifluoromethoxy)phenoxy)piperidin-1-yl)-5-methyl-6-oxo-5,6-dihydro-1,5-naphthyridine-2-carbonitrile] as the compound, how does the EC50 read?
Answer: 0.21 µM

Same assay, conditions: human whole blood, CD8 positive population, anti-CD3 stimulation; top concentration 20 μM; read-out: DGK HWB (human whole blood pERK)

Question: `CCO[C@H]1CN(c2cc(=O)n(C)c3ccc(C#N)nc23)CC[C@@H]1Oc1ccc(OC(C)C)cn1` (relative stereo) [Example 397, trans-8-(4-((5-Isopropoxypyridin-2-yl)oxy)-3-ethoxypiperidin-1-yl)-5-methyl-6-oxo-5,6-dihydro-1,5-naphthyridine-2-carbonitrile] was tested. Which EC50 did it give?
Answer: 0.14 µM

Question: `Cn1c(=O)cc(N2CC[C@@H](Oc3cccc(C(F)(F)F)c3)[C@H](OCC3CC3)C2)c2nc(C#N)ccc21` [Example 388, 8-((3R,4R)-3-(cyclopropylmethoxy)-4-(3-(trifluoromethyl)phenoxy)piperidin-1-yl)-5-methyl-6-oxo-5,6-dihydro-1,5-naphthyridine-2-carbonitrile] was tested. Which EC50 did it give?
Answer: 20 µM

Same assay, conditions: human whole blood, CD8 positive population; read-out: DGK HWB pERK IC50

Question: With `Cn1c(=O)cc(N2CCC(Oc3ccc(C(C)(C)C)cc3)CC2)c2cc(C#N)ccc21` [Example 53, 4-(4-(4-(tert-butyl)phenoxy)piperidin-1-yl)-1-methyl-2-oxo-1,2-dihydroquinoline-6-carbonitrile] as the compound, how does the IC50 read?
Answer: 2.8 µM

Question: How did the IC50 turn out when `C[C@@H]1CN(c2cc(=O)n(C)c3ccc(C#N)nc23)CC[C@@H]1Oc1ccc(C(C)(C)C)cc1` (racemic) [Example 175, 8-((3R,4S)-4-(4-(tert-butyl)phenoxy)-3-methylpiperidin-1-yl)-5-methyl-6-oxo-5,6-dihydro-1,5-naphthyridine-2-carbonitrile] was run?
Answer: 0.8 µM

Same assay, conditions: read-out: DGK HWB; human whole blood pERK

Question: `C[C@@H]1CN(c2nc(=O)n(C)c3ccc(C#N)nc23)[C@H](C)CC1Oc1cccc(C(F)(F)F)c1` (stereo partly drawn) [Example 256, 4-((2R,5R)-2,5-dimethyl-4-(3-(trifluoromethyl)phenoxy)piperidin-1-yl)-1-methyl-2-oxo-1,2-dihydropyrido[3,2-d]pyrimidine-6-carbonitrile] was tested. Which EC50 did it give?
Answer: 4.7 µM

Question: `CCO[C@H]1CN(c2cc(=O)n(C)c3ccc(C#N)nc23)CC[C@@H]1Oc1ccc(Cl)c(F)c1` [Example 357, 8-((3S,4S)-4-(4-chloro-3-fluorophenoxy)-3-ethoxypiperidin-1-yl)-5-methyl-6-oxo-5,6-dihydro-1,5-naphthyridine-2-carbonitrile] was tested. Which EC50 did it give?
Answer: 20 µM

Question: How did the EC50 turn out when `CC(C)Oc1ccc(OC2C[C@H](C)N(c3nc(=O)n(C)c4ccc(C#N)nc34)C[C@H]2C)nc1` (stereo partly drawn) [Example 247, 4-((2S,5R)-4-((5-isopropoxypyridin-2-yl)oxy)-2,5-dimethylpiperidin-1-yl)-1-methyl-2-oxo-1,2-dihydropyrido[3,2-d]pyrimidine-6-carbonitrile] was run?
Answer: 0.74 µM

Question: With `CC(C)Oc1ccc(OC2C[C@H](C)N(c3nc(=O)n(C)c4ccc(C#N)nc34)C[C@H]2C)nc1` (stereo partly drawn) [Example 250, 4-((2S,5R)-4-((5-isopropoxypyridin-2-yl)oxy)-2,5-dimethylpiperidin-1-yl)-1-methyl-2-oxo-1,2-dihydropyrido[3,2-d]pyrimidine-6-carbonitrile] as the compound, how does the EC50 read?
Answer: 2.1 µM

Question: With `C[C@@H]1CN(c2cc(=O)n(C)c3ccc(C#N)nc23)[C@@H](C)CC1N(C)Cc1ccc(F)cc1` (single isomer, unassigned) [Example 332] as the compound, how does the EC50 read?
Answer: 16 µM
